Experimental data from PubChem BioAssay AID330 (DTP/NCI, 2004).
“And” between values parts separate entries of the source, which are not always exact repeats. Identical values can stand only once. Toxic doses and inconclusive results are not listed. Rule for the calls: active = survival T/C of 150% or more; inactive = T/C below 125% in these data.

Test system: P388 leukemia ip, CD2F1 mice, survival T/C
Test: NCI In Vivo Anticancer Drug Screen. Data for tumor model P388 Leukemia (intraperitoneal) in CD2F1 (CDF1) mice
Details: endpoint: median survival time, higher = longer survival
In short: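 Mice carrying the transplanted tumor received test compound or vehicle. Survival was recorded in each group, and the value is the treated-group measurement divided by that of the vehicle-treated control group.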

[1] = dose: 25.0 mg/kg/injection, schedule: Q01DX009 (ip), vehicle: saline with Tween-80
[2] = dose: 50.0 mg/kg/injection, schedule: Q01DX009 (ip), vehicle: saline with Tween-80
[3] = dose: 50.0 mg/kg/injection, schedule: Q04DX003 (ip), vehicle: saline with Tween-80
[4] = dose: 100.0 mg/kg/injection, schedule: Q01DX009 (ip), vehicle: saline with Tween-80
[5] = dose: 100.0 mg/kg/injection, schedule: Q04DX003 (ip), vehicle: saline with Tween-80
[6] = dose: 200.0 mg/kg/injection, schedule: Q04DX003 (ip), vehicle: saline with Tween-80
[7] = dose: 50.0 mg/kg/injection, schedule: Q01DX005 (ip), vehicle: Klucel (hydroxypropylcellulose) (HPC)
[8] = dose: 100.0 mg/kg/injection, schedule: Q01DX005 (ip), vehicle: Klucel (hydroxypropylcellulose) (HPC)
[9] = dose: 200.0 mg/kg/injection, schedule: Q01DX005 (ip), vehicle: Klucel (hydroxypropylcellulose) (HPC)
[10] = dose: 50.0 mg/kg/injection, schedule: Q01DX009 (ip), vehicle: saline
[11] = dose: 100.0 mg/kg/injection, schedule: Q01DX009 (ip), vehicle: saline
[12] = dose: 200.0 mg/kg/injection, schedule: Q01DX009 (ip), vehicle: saline
[13] = dose: 3.12 mg/kg/injection, schedule: Q01DX005 (ip), vehicle: Klucel (hydroxypropylcellulose) (HPC)
[14] = dose: 6.25 mg/kg/injection, schedule: Q01DX005 (ip), vehicle: Klucel (hydroxypropylcellulose) (HPC)
[15] = dose: 25.0 mg/kg/injection, schedule: Q01DX005 (ip), vehicle: Klucel (hydroxypropylcellulose) (HPC)
[16] = dose: 60.0 mg/kg/injection, schedule: Q01DX005 (ip), vehicle: saline with Tween-80
[17] = dose: 120.0 mg/kg/injection, schedule: Q01DX005 (ip), vehicle: saline with Tween-80
[18] = dose: 240.0 mg/kg/injection, schedule: Q01DX005 (ip), vehicle: saline with Tween-80
[19] = dose: 12.5 mg/kg/injection, schedule: Q01DX009 (ip), vehicle: saline with Tween-80

Measured: T/C

CCOC(=O)C(NC(=O)C(Cc1ccc(N(CCCl)CCCl)cc1)NC(C)=O)C(C)C (stereo unspecified)
inactive: dose: 3.13 mg/kg/injection, schedule: Q04DX003 (ip), vehicle: saline 100 % of control | dose: 6.25 mg/kg/injection, schedule: Q04DX003 (ip), vehicle: saline 109 % of control | dose: 12.5 mg/kg/injection, schedule: Q04DX003 (ip), vehicle: saline 118 % of control
active: [1] 160 % of control | [2] 180 % of control | [3] 159 % of control | [4] 245 % of control | [5] 163 % of control and 175 % of control | dose: 150.0 mg/kg/injection, schedule: Q04DX003 (ip), vehicle: other 151 % of control | dose: 160.0 mg/kg/injection, schedule: Q04DX003 (ip), vehicle: other 161 % of control | [6] 154 % of control | dose: 300.0 mg/kg/injection, schedule: Q04DX003 (ip), vehicle: other 174 % of control | dose: 400.0 mg/kg/injection, schedule: Q04DX003 (ip), vehicle: other 159 % of control

CC(O)C(O)C(O)C(O)C=O (stereo unspecified)
inactive: dose: 60.0 mg/kg/injection, schedule: Q01DX005 (ip), vehicle: saline 109 % of control | dose: 240.0 mg/kg/injection, schedule: Q01DX005 (ip), vehicle: saline 100 % of control

CCOC(=O)N1CCc2cc(OC)c(OC)cc2/C1=C/c1cc(OC)c(OC)cc1Br
inactive: dose: 12.5 mg/kg/injection, schedule: Q01DX009 (ip), vehicle: other 94 % of control | dose: 25.0 mg/kg/injection, schedule: Q01DX009 (ip), vehicle: other 96 % of control | dose: 50.0 mg/kg/injection, schedule: Q01DX009 (ip), vehicle: other 96 % of control | dose: 100.0 mg/kg/injection, schedule: Q01DX009 (ip), vehicle: other 93 % of control | dose: 200.0 mg/kg/injection, schedule: Q01DX009 (ip), vehicle: other 93 % of control

CCOc1c(N=Nc2ccc(O)cc2)c(C)nn1C(=S)SC
inactive: dose: 60.0 mg/kg/injection, schedule: Q01DX005 (ip), vehicle: Klucel + Tween-80 107 % of control | dose: 120.0 mg/kg/injection, schedule: Q01DX005 (ip), vehicle: Klucel + Tween-80 104 % of control | dose: 240.0 mg/kg/injection, schedule: Q01DX005 (ip), vehicle: Klucel + Tween-80 100 % of control

O=C1CCC/C(c2ccccc2)=N\N=C/1c1ccccc1
inactive: [7] 106 % of control | [8] 106 % of control | [9] 103 % of control

CCCCCC1OC1CC1OC1CCCCCCCC(=O)O (stereo unspecified)
inactive: [10] 99 % of control | [11] 90 % of control | [12] 86 % of control

Cc1cc2nc3c(C4OCC(O)C4O)nn(-c4ccccc4)c3nc2cc1C (stereo unspecified)
inactive: [13] 93 % of control | [14] 88 % of control | [7] 88 % of control | [8] 93 % of control | [9] 103 % of control

Cc1ccc(/C=N\NC(=O)NN)cc1
inactive: [15] 97 % of control | [7] 102 % of control

CCO/C=C1/N=C(c2ccc(OC)cc2OC)OC1=O
inactive: [16] 95 % of control | [17] 104 % of control | [18] 106 % of control

COc1c(OC)c(OC)c(-c2cc(=O)c3c(OC)c(OC)c(OC)c(OC)c3o2)c(OC)c1OC
inactive: [7] 94 % of control | [8] 88 % of control | [9] 91 % of control

C/C=C(\C)C(=O)N/N=C\C=C\c1ccccc1
inactive: [15] 89 % of control | [7] 92 % of control | [8] 89 % of control

CCCOC(=O)NC(C)C(=O)NC(CCC(=O)NC(CCCC(N)C(=O)O)C(=O)NC(C)C(=O)O)C(=O)O (stereo unspecified)
inactive: dose: 1.56 mg/kg/injection, schedule: Q01DX005 (ip), vehicle: Klucel (hydroxypropylcellulose) (HPC) 100 % of control | [13] 103 % of control | [14] 100 % of control | dose: 12.5 mg/kg/injection, schedule: Q01DX005 (ip), vehicle: Klucel (hydroxypropylcellulose) (HPC) 95 % of control and 96 % of control | [15] 86 % of control | [7] 100 % of control

O=C(Nc1ccc2c(O)c(N=Nc3ccc(N=Nc4ccc(S(=O)(=O)O)cc4)cc3)c(S(=O)(=O)O)cc2c1)c1ccccc1
inactive: [10] 100 % of control | [11] 95 % of control | [12] 103 % of control

CCCSc1nc2c(N)nc(-c3ccccc3)nc2nc1N
inactive: [2] 108 % of control | [4] 105 % of control | dose: 200.0 mg/kg/injection, schedule: Q01DX009 (ip), vehicle: saline with Tween-80 105 % of control

CCCCCCCCN(c1ccc(C(=O)NC(CCC(=O)OCC)C(=O)OCC)cc1)S(=O)(=O)c1ccc(C)cc1 (stereo unspecified)
inactive: dose: 12.5 mg/kg/injection, schedule: Q04DX003 (ip), vehicle: saline with Tween-80 104 % of control | dose: 25.0 mg/kg/injection, schedule: Q04DX003 (ip), vehicle: saline with Tween-80 100 % of control | [3] 95 % of control

CC(C)(C)C(N)=S=O
inactive: dose: 50.0 mg/kg/injection, schedule: Q01DX005 (ip), vehicle: saline 101 % of control | dose: 100.0 mg/kg/injection, schedule: Q01DX005 (ip), vehicle: saline 106 % of control | dose: 200.0 mg/kg/injection, schedule: Q01DX005 (ip), vehicle: saline 106 % of control

c1ccc2c(c1)ccc1c(NCCCCNc3c4ccccc4nc4c3ccc3ccccc34)c3ccccc3nc12
inactive: dose: 6.25 mg/kg/injection, schedule: Q01DX009 (ip), vehicle: saline with Tween-80 107 % of control | [19] 107 % of control

S=c1sc(-c2ccc(Cl)cc2)nn1CSc1nc2ccccc2[nH]1
inactive: [16] 100 % of control | [17] 98 % of control | [18] 89 % of control

CSC(=S)NNC(C)c1nccc2ccccc12 (stereo unspecified)
inactive: dose: 50.0 mg/kg/injection, schedule: Q01DX005 (ip), vehicle: saline with Tween-80 109 % of control | dose: 100.0 mg/kg/injection, schedule: Q01DX005 (ip), vehicle: saline with Tween-80 114 % of control | dose: 200.0 mg/kg/injection, schedule: Q01DX005 (ip), vehicle: saline with Tween-80 108 % of control

N#CC1CC2C=CC1C2 (stereo unspecified)
inactive: dose: 5.0 mg/kg/injection, schedule: Q01DX009 (ip), vehicle: saline sonified 109 % of control | dose: 10.0 mg/kg/injection, schedule: Q01DX009 (ip), vehicle: saline sonified 109 % of control | dose: 20.0 mg/kg/injection, schedule: Q01DX009 (ip), vehicle: saline sonified 90 % of control

CC(=O)c1ccc[n+](CCc2c[nH]c3ccccc23)c1
inactive: [19] 104 % of control | [1] 113 % of control | [2] 109 % of control

O=c1c(O)c(-c2ccc(O)c(O)c2)oc2cc(O)cc(O)c12
inactive: dose: 12.5 mg/kg/injection, schedule: Q03HX008 (ip), vehicle: saline with Tween-80 95 % of control | dose: 25.0 mg/kg/injection, schedule: Q03HX008 (ip), vehicle: saline with Tween-80 91 % of control | dose: 40.0 mg/kg/injection, schedule: Q01DX009 (ip), vehicle: saline with Tween-80 100 % of control | dose: 50.0 mg/kg/injection, schedule: Q03HX008 (ip), vehicle: saline with Tween-80 93 % of control | dose: 80.0 mg/kg/injection, schedule: Q01DX009 (ip), vehicle: saline with Tween-80 100 % of control | dose: 100.0 mg/kg/injection, schedule: Q01DX001 (ip), vehicle: saline with Tween-80 108 % of control | dose: 100.0 mg/kg/injection, schedule: Q03HX008 (ip), vehicle: saline with Tween-80 99 % of control | [5] 95 % of control | dose: 200.0 mg/kg/injection, schedule: Q01DX001 (ip), vehicle: saline with Tween-80 98 % of control | dose: 200.0 mg/kg/injection, schedule: Q03HX008 (ip), vehicle: saline with Tween-80 103 % of control | [6] 109 % of control | dose: 400.0 mg/kg/injection, schedule: Q01DX001 (ip), vehicle: saline with Tween-80 104 % of control | dose: 400.0 mg/kg/injection, schedule: Q04DX003 (ip), vehicle: saline with Tween-80 104 % of control | dose: 800.0 mg/kg/injection, schedule: Q01DX001 (ip), vehicle: saline with Tween-80 108 % of control
